# Test results as given in patent US8486962B2, “Antifungal agents” (F2G Ltd., priority 2005, dated 2013).
# What was measured:
# [1] = tested on: Aspergillus flavus; test: MIC, YAG medium, Aspergillus flavus; assay type: cell-based; details: YAG medium; for MIC: Aspergillus flavus, read-out: MIC A Flavus 01
# In short: (§1)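 In YAG medium (1% glucose, 1% ammonium chloride, 0.5% yeast extract), Aspergillus strains at 1-2×10^4 cfu/ml were read after 24 hrs at 35° C, with MIC at >70% growth inhibition by OD485. C. albicans was run in MOPS-buffered RPMI, pH7.0, at 1-2×10^3 cfu/ml for 24-48 hrs, with MIC at >80% inhibition. The drug range was 50-0.05 mg/L.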
# [2] = tested on: Aspergillus fumigatus AF293; test: MIC, YAG medium, Aspergillus fumigatus AF293; assay type: cell-based; details: YAG medium; for MIC: Aspergillus fumigatus, AF293, read-out: MIC A Fum. 293
# In short: as §1
# [3] = tested on: Aspergillus niger; test: MIC, YAG medium, Aspergillus niger; assay type: cell-based; details: YAG medium; for MIC: Aspergillus niger, read-out: MIC A Niger 1
# In short: as §1
# [4] = tested on: Aspergillus terreus; test: MIC, YAG medium, Aspergillus terreus; assay type: cell-based; details: YAG medium; for MIC: Aspergillus terreus, read-out: MIC A Terreus 4
# In short: as §1
# [5] = tested on: Aspergillus fumigatus AF210; test: MIC, YAG medium, Aspergillus fumigatus AF210; assay type: cell-based; details: YAG medium; for MIC: Aspergillus fumigatus, AF210, read-out: MIC A Fum. 210
# In short: as §1
# [6] = tested on: A Terreus 49; test: MIC, YAG medium, A Terreus 49; assay type: cell-based, Aspergillus terreus; details: YAG medium; for MIC: Aspergillus terreus, read-out: MIC A Terreus 49
# In short: as §1
SMILES,MIC [1],MIC [2],MIC [3],MIC [4],MIC [5],MIC [6],MIC A Flavus 01 [1],MIC A Fum. 293 [2],MIC A Niger 1 [3],MIC A Terreus 4 [4],MIC A Fum. 210 [5],MIC A Terreus 49 [6]
"CC(=O)Cc1ccc(NC(=O)C(=O)c2c(-c3ccccc3)cc3ccccn23)cc1 [Example 284, 2-Oxo-N-[4-(2-oxo-propyl)-phenyl]-2-(2-phenyl-indolizin-3-yl)-acetamide]",0.05 µg/mL,0.1 µg/mL,0.05 µg/mL,0.05 µg/mL,0.1 µg/mL,15 ng/mL,,,,,,
"CCN(CC)c1ccc(NC(=O)C(=O)c2c(-c3ccccc3)cc3ccccn23)cc1C [Example 290, N-(4-Diethylamino-3-methyl-phenyl)-2-oxo-2-(2-phenyl-indolizin-3-yl)-acetamide]",0.05 µg/mL,0.1 µg/mL,0.05 µg/mL,0.03 µg/mL,0.2 µg/mL,3 ng/mL,,,,,,
"COc1ccc(NC(=O)C(=O)c2c(-c3cccs3)cc3ccccn23)cc1 [Example 148, N-(4-Methoxy-phenyl)-2-oxo-2-(2-thiophen-2-yl-indolizin-3-yl)-acetamide]",0.008 µg/mL,0.12 µg/mL,0.062 µg/mL,0.008 µg/mL,0.12 µg/mL,8 ng/mL,,,,,,
"CCCCOC(=O)c1ccc(NC(=O)C(=O)c2c(-c3ccccc3)cc3ccccn23)cc1 [Example 144, 4-[2-Oxo-2-(2-phenyl-indolizin-3-yl)-acetylamino]-benzoic acid butyl ester]",0.015 µg/mL,0.06 µg/mL,0.008 µg/mL,0.062 µg/mL,0.062 µg/mL,8 ng/mL,,,,,,
"Cc1ccccc1-c1cc2ccccn2c1C(=O)C(=O)Nc1ccc(OCC(F)(F)C(F)F)nc1 [Example 286, 2-Oxo-N-[6-(2,2,3,3-tetrafluoro-propoxy)-pyridin-3-yl]-2-(2-o-tolyl-indolizin-3-yl)-acetamide]",0.015 µg/mL,0.1 µg/mL,0.015 µg/mL,0.1 µg/mL,0.1 µg/mL,15 ng/mL,,,,,,
"CN(C)c1ccc(NC(=O)C(=O)c2c(-c3ccccc3)cc3ccccn23)cc1 [Example 203, N-(4-Dimethylamino-phenyl)-2-oxo-2-(2-phenyl-indolizin-3-yl)-acetamide]",0.008 µg/mL,0.06 µg/mL,0.031 µg/mL,0.015 µg/mL,0.062 µg/mL,8 ng/mL,,,,,,
"CON=C(C)c1ccc(NC(=O)C(=O)c2c(-c3ccccc3)cc3ccccn23)cc1 (mixture of isomers) [Example 243, N-(4-{1-[(E/Z)-Methoxyimino]-ethyl}-phenyl)-2-oxo-2-(2-phenyl-indolizin-3-yl)-acetamide]",,,,,,,0.015 mg/L,0.062 mg/L,0.015 mg/L,0.008 mg/L,0.12 mg/L,0.004 mg/L
"Cc1ccc(NC(=O)C(=O)c2c(-c3ccccc3)cc3ccccn23)c(C)c1C [Example 259, 2-Oxo-2-(2-phenyl-indolizin-3-yl)-N-(2,3,4-trimethyl-phenyl)-acetamide]",0.015 µg/mL,0.06 µg/mL,0.03 µg/mL,0.002 µg/mL,0.06 µg/mL,4 ng/mL,,,,,,
"COc1ccccc1NC(=O)C(=O)c1c(-c2ccccc2)cc2ccccn12 [Example 137, N-(2-Methoxy-phenyl)-2-oxo-2-(2-phenyl-indolizin-3-yl)-acetamide]",0.125 µg/mL,0.2 µg/mL,0.062 µg/mL,0.06 µg/mL,0.5 µg/mL,60 ng/mL,,,,,,
"COc1ccc(NC(=O)C(=O)c2c(-c3ccccc3)cc3ccccn23)cc1 [Example 139, N-(4-Methoxy-phenyl)-2-oxo-2-(2-phenyl-indolizin-3-yl)-acetamide]",0.008 µg/mL,0.12 µg/mL,0.031 µg/mL,0.008 µg/mL,0.12 µg/mL,2 ng/mL,,,,,,
"CN(C)Cc1ccc(NC(=O)C(=O)c2c(-c3ccccc3)cc3ccccn23)cc1 [Example 278, N-(4-Dimethylaminomethyl-phenyl)-2-oxo-2-(2-phenyl-indolizin-3-yl)-acetamide]",6.25 µg/mL,25 µg/mL,25 µg/mL,6.25 µg/mL,12.5 µg/mL,12500 ng/mL,,,,,,
"CC(C)(C#N)c1ccc(NC(=O)C(=O)c2c(-c3ccccc3)cc3ccccn23)cc1 [Example 221, N-[4-(Cyano-dimethyl-methyl)-phenyl]-2-oxo-2-(2-phenyl-indolizin-3-yl)-acetamide]",0.015 µg/mL,0.062 µg/mL,0.015 µg/mL,0.015 µg/mL,0.03 µg/mL,8 ng/mL,,,,,,
"CC(=O)c1cccc(NC(=O)C(=O)c2c(-c3ccccc3)cc3ccccn23)c1 [Example 267, N-(3-Acetyl-phenyl)-2-oxo-2-(2-phenyl-indolizin-3-yl)-acetamide]",0.05 µg/mL,0.4 µg/mL,0.4 µg/mL,0.1 µg/mL,0.8 µg/mL,50 ng/mL,,,,,,
"O=C(Nc1cc(Cl)cc(Cl)c1)C(=O)c1c(-c2ccccc2)cc2ccccn12 [Example 220, N-(3,5-Dichloro-phenyl)-2-oxo-2-(2-phenyl-indolizin-3-yl)-acetamide]",0.015 µg/mL,0.12 µg/mL,0.062 µg/mL,0.031 µg/mL,0.12 µg/mL,8 ng/mL,,,,,,
"COc1ccc(NC(=O)C(=O)c2c(-c3ccc(F)cc3)cc3ccccn23)cc1 [Example 155, 2-[2-(4-Fluoro-phenyl)-indolizin-3-yl]-N-(4-methoxy-phenyl)-2-oxo-acetamide]",0.03 µg/mL,0.5 µg/mL,0.12 µg/mL,0.031 µg/mL,0.12 µg/mL,8 ng/mL,,,,,,
"COc1cccc(NC(=O)C(=O)c2c(-c3ccccc3)cc3ccccn23)c1 [Example 138, N-(3-Methoxy-phenyl)-2-oxo-2-(2-phenyl-indolizin-3-yl)-acetamide]",0.015 µg/mL,0.12 µg/mL,0.12 µg/mL,0.031 µg/mL,0.12 µg/mL,4 ng/mL,,,,,,
"O=C(Nc1ccc(F)cc1)C(=O)c1c(-c2ccccc2)cc2ccccn12 [Example 200, N-(4-Fluoro-phenyl)-2-oxo-2-(2-phenyl-indolizin-3-yl)-acetamide]",0.062 µg/mL,0.25 µg/mL,0.031 µg/mL,0.015 µg/mL,0.25 µg/mL,15 ng/mL,,,,,,
"CCCOC(=O)c1ccc(NC(=O)C(=O)c2c(-c3ccccc3)cc3ccccn23)cc1 [Example 143, 4-[2-Oxo-2-(2-phenyl-indolizin-3-yl)-acetylamino]-benzoic acid propyl ester]",0.031 µg/mL,0.061 µg/mL,0.015 µg/mL,0.031 µg/mL,0.06 µg/mL,8 ng/mL,,,,,,
"O=C(Nc1ccc(N2CCOCC2)cc1)C(=O)c1c(-c2ccccc2)cc2ccccn12 [Example 251, N-(4-Morpholin-4-yl-phenyl)-2-oxo-2-(2-phenyl-indolizin-3-yl)-acetamide]",0.062 µg/mL,0.12 µg/mL,0.062 µg/mL,0.031 µg/mL,0.12 µg/mL,15 ng/mL,,,,,,
"COc1ccc(NC(=O)C(=NOCCN(C)C)c2c(-c3ccccc3)cc3ccccn23)cc1 (mixture of isomers) [Example 295, 2-[(E/Z)-2-Dimethylamino-ethoxyimino]-N-(4-methoxy-phenyl)-2-(2-phenyl-indolizin-3-yl)-acetamide]",,,,,,,12.5 mg/L,>50 mg/L,25 mg/L,6.25 mg/L,50 mg/L,6.25 mg/L
